How the values were obtained:
Assay type in all cases: cell-based
[1] = system: Staphylococcus aureus ATCC6538; assay: Bactericide effect of antimicrobial composition against Staphylococcus aureus
Procedure: 1) Testing strain: Staphylococcus aureus ATCC6538, 5-6th generations, provided by the reserve center of China microbial reservation committee.
The testing sample was diluted for 2, 4, 8, 16, 32, 64, 128 and […] folds using standard hard water, then reacted with ATCC6538 for 1 min, 5 min, 10 min.
(§1) 2. Testing Methods and Standards:
(§2) <<Technical Standard for Disinfection>> (2002 Edition)
(§3) GB15979-2002 <<Technical standard for testing disinfection product>> “Procedures for testing bactericide effect”

[2] = system: Candida albicans ATCC 10231; assay: Bactericidal effect of antimicrobial composition against Candida albicans
Procedure: 1) Testing strain: Candida albicans ATCC 10231, the 5-6 generations; provide by the “Reserve Center of Chinese Microbial Reservation Committee”.
The testing sample was diluted for 2, 4, 8, 16, 32, 64, 128 and […] times using standard hard water, then reacted with ATCC 10231 for 1 min, 5 min, 10 min.
as §1, §2, §3
The bactericidal effect of antimicrobial composition against Candida albicans ATCC10231 at 20±1° C. temperature is shown in table 6.

[3] = system: Eschetichia coli 8099; assay: Bactericide effect of antimicrobial composition against Eschetichia coli
Procedure: 1) Testing strain: Eschetichia coli 8099, the 5-6 generations were used; provide by the “Reserve Center of Chinese Microbial Reservation Committee”.
The testing sample was diluted for 2, 4, 8, 16, 32, 64, 128 and 256 folds using standard hard water, then reacted with Eschetichia coli 8099 for 1 min, 5 min, 10 min.
as §1, §2, §3

“N,N-di-n-decyl-N,N-dimethyl-ammonium 5-oxopyrrolidine-2-carboxylate [DDAPC]” showed a minimum inhibiting concentrations ([1]; reacted 1 min) of 0.0016%, a minimum inhibiting concentrations ([1]; reacted 5 min) of 0.0004% and a minimum inhibiting concentrations ([1]; reacted 10 min) of 0.0004%. The minimum inhibiting concentrations ([2]; reacted 1 min) was 0.0016%, the minimum inhibiting concentrations ([2]; reacted 5 min) was 0.0008% and the minimum inhibiting concentrations ([2]; reacted 10 min) was 0.0004%. The minimum inhibiting concentrations ([3]; reacted 1 min) was 0.006%, the minimum inhibiting concentrations ([3]; reacted 5 min) was 0.003% and the minimum inhibiting concentrations ([3]; reacted 10 min) was 0.003%.

— US9132111B2, “Topical antimicrobial compositions” (priority 2011, dated 2015)
